Experimental data published in patent US12383608B2, “WT1 helper peptides and combinations of WT1 helper peptide and conjugate of cancer antigen peptides” (Sumitomo Pharma Co., Ltd., priority 2016, dated 2025).

Tested on: HLA-A*02:01 transgenic mouse (C57BL/6CrHLA-A2.1DR1)
Assay: In vivo CTL induction in HLA-A*02:01 transgenic mouse (IFNγ ELISPOT assay on splenocytes)
Details: Montanide ISA 51 VG, intradermal; for Effect of the cocktail vaccine comprising the peptide on the CTL induction by the compound of formula (4): cocktail vaccine: helper peptide (170-315 μg per site) + compound of formula (4) (250 μg per site), molar ratio 1:1.13-1.15 or equimolar, compared with compound of formula (4) alone; for CTL induction by the cocktail vaccine comprising the peptide in addition to the compound of formula (4) (increase in number of CTLs): cocktail vaccine: helper peptide + compound of formula (4), compared with the vaccine comprising the compound of formula (4)
Description: The HLA-A*02:01 transgenic mouse (C57BL/6CrHLA-A2.1DR1) lacks mouse MHC, and instead expresses a chimeric IILA of a human MHC, HLA-A*02:01 with a mouse MHC, H-2Db, and HLA-DRB1*01:01.
The solution was diluted with water for injection to a concentration of 10 mg/ml, and then converted to an emulsion by addition of an equal volume of Montanide ISA 51 VG. […] One week after the administration, the mice were sacrificed with CO2 gas. Splenocytes were harvested from spleens removed from the mice. For detecting IFNγ-producing splenocytes, an IFNγ ELISPOT assay kit was used. In particular, an ELISPOT plate was treated with an anti-mouse-IFNγ antibody on the day before preparation of the splenocyte samples. On the next day, the plate was blocked by treatment with an RPMI 1640 medium with 10% FBS. To the blocked ELISPOT plate, the splenocyte samples from the HLA-A*02:01 transgenic mice were added at 1.25×10^5 cells/well. For in vitro stimulation of the cells, the peptide of SEQ ID NO: 15 was dissolved in DMSO at a concentration of 40 mg/ml, diluted with RPMI 1640 with 10% FBS to 40 μg/ml, and added to the splenocyte-containing wells at a final concentration of 10 μg/ml. The plate was incubated for 17 hours at 37° C. under an atmosphere of 5% CO2. Then, after removal of the culture medium from the wells, the ELISPOT plate was subjected to treatment for cell staining in accordance with the manufacturer's protocol. Stained spots were counted on ImmunoSpot Analyzer (C.T.L.).
The scale on the vertical axis of the graph of FIG. 1 indicates the number of cells (CTLs) which produced IFNγ in response to the stimulation with the peptide of SEQ ID NO: 15. The compound and the peptide administered to the mice are described under the bars. […] Therefore, effect of each vaccine in CTL induction is known from the difference in cell count between the black bar and the white bar. When no IFNγ is produced by cells in the absence of the stimulation with SEQ ID NO: 15, a white bar cannot have a height.
The solution was diluted with water for injection to a concentration of 10 mg/ml, and then converted to an emulsion by addition of an equal volume of Montanide ISA 51 VC.
(§1) The solution was diluted with water for injection to a concentration of 10 mg/ml, and then converted to an emulsion by addition of an equal volume of Montanide ISA 51 VG.
as §1, §1, §1, §1, §1, §1, §1, §1, §1

| Sequence | Effect of the cocktail vaccine comprising the peptide on the CTL induction by the compound of formula (4) | CTL induction by the cocktail vaccine comprising the peptide in addition to the compound of formula (4) (increase in number of CTLs) |
| --- | --- | --- |
| CNKRYFKLSHLQMHSRK [SEQ ID NO: 7, reference compound] | enhanced | highly effective in CTL induction |
| FKLSHLQMHSRKHTG [SEQ ID NO: 13] | enhanced | highly effective in CTL induction |
| KLSHLQMHSRKHTGE [SEQ ID NO: 14] | enhanced | highly effective in CTL induction |
| RYFKLSHLQMHSRKHT [SEQ ID NO: 48] | enhanced | highly effective in CTL induction |
| PGCNKRYFKLSHLQMHSRKHTG [SEQ ID NO: 4, reference compound] | enhanced | highly effective in CTL induction |
| RYFKLSHLQMHSRKHTGE [SEQ ID NO: 49] | enhanced | highly effective in CTL induction |
| AYPGCNKRYFKLSHLQMH [SEQ ID NO: 43] | enhanced | highly effective in CTL induction |
| YPGCNKRYFKLSHLQ [SEQ ID NO: 3] | enhanced | highly effective in CTL induction |
| RYFKLSHLQMHSRKH [SEQ ID NO: 11] | enhanced | highly effective in CTL induction |
| KRYFKLSHLQMHSRKH [SEQ ID NO: 10, reference compound] | enhanced | highly effective in CTL induction |
| NKRYFKLSHLQMHSRK [SEQ ID NO: 8] | enhanced | highly effective in CTL induction |
| GCNKRYFKLSHLQMHSRK [SEQ ID NO: 6] | enhanced | highly effective in CTL induction |
| AYPGCNKRYFKLSHL [SEQ ID NO: 2] | enhanced | highly effective in CTL induction |
| GCNKRYFKLSHL [SEQ ID NO: 46] | enhanced | highly effective in CTL induction |
| AYPGCNKRYFKLSHLQMHSRK [SEQ ID NO: 44] | enhanced | highly effective in CTL induction |
| PGCNKRYFKLSHLQMHSRK [SEQ ID NO: 5] | enhanced | highly effective in CTL induction |
| YFKLSHLQMHSRKHT [SEQ ID NO: 12] | enhanced | highly effective in CTL induction |
| KRYFKLSHLQMHSRK [SEQ ID NO: 9] | enhanced | highly effective in CTL induction |
| RYFKLSHLQMHSRK [SEQ ID NO: 39] | enhanced | highly effective in CTL induction |
| RYFKLSHLQMH [SEQ ID NO: 45] | enhanced | highly effective in CTL induction |
